Measured values published in patent US7135466B2 (Kirin Beer Kabushiki Kaisha, priority 1999, dated 2006).

Key:
PDGF-Ra = target: T1, PDGF-Ra (Homo sapiens, UniProt P16234); test: Inhibitory activity against PDGF-Ra phosphorylation by PDGF-AA stimulation using G292; type: cell-based; settings: for IC50: Pharmacological Test Example 1, > means inhibition at indicated concentration not more than 50%, < and << not less than 50%, read-out: PDGF (E) IC50
T1 construct: host or cells: G-292 human osteosarcoma cells
Outline: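 Phosphorylated PDGF-Ra was measured colorimetrically (450 nm) after tyrosine-phosphorylated proteins from G-292 lysates were bound to PY-20-coated wells and detected with anti-PDGF-Ra antibody. Compound preincubation lasted 1 hr, followed by 50 ng/ml PDGF-AA for 5 min.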

c-kit = target: T2, c-kit (Homo sapiens, UniProt P10721); test: Inhibitory activity against c-kit autophosphorylation (MO7e cells, h-SCF); type: cell-based; settings: MO7e cells, h-SCF 50 ng/ml; read-out: c-kit IC50
T2 construct: MO7e (human megakaryocytic leukemia cell line) which had been arrested for 20 hr; endogenous in cells; host or cells: MO7e human megakaryocytic leukemia cell line
Outline: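 Growth-arrested (20 hr) MO7e; cpd in DMSO, 1 hr; h-SCF 50 ng/ml, 5 min; lyse. ELISA: anti-pTyr (PY-20) capture, anti-c-kit 1° Ab, HRP anti-rabbit 2° Ab, A450.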

T1 sequence (P16234 24-1089): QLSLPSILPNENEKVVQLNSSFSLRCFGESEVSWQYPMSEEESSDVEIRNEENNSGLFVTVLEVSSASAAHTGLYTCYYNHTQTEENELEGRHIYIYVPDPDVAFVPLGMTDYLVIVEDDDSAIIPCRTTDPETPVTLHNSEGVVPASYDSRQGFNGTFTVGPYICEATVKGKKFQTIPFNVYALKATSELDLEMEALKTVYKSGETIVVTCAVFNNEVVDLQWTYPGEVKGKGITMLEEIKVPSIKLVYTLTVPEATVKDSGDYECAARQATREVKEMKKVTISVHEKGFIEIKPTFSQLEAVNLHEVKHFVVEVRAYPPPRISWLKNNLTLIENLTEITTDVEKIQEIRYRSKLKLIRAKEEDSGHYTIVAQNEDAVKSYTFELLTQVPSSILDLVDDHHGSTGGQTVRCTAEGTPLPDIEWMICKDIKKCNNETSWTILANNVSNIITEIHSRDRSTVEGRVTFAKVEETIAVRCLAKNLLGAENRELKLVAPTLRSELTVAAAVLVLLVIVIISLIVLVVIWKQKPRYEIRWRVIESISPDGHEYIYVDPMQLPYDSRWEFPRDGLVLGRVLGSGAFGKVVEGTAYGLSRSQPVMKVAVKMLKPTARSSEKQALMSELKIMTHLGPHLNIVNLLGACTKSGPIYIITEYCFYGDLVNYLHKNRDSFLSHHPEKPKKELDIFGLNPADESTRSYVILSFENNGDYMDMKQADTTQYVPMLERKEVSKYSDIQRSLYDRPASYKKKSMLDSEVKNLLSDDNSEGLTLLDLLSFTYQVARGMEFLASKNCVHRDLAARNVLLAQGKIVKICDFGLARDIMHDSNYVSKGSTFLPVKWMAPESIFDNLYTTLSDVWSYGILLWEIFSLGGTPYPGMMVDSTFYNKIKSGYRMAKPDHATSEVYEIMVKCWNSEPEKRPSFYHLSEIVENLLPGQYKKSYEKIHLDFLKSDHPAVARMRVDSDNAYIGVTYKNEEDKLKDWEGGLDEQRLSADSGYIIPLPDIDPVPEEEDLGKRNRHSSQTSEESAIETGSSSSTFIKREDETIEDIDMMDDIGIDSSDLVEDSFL
T2 sequence (P10721 26-976): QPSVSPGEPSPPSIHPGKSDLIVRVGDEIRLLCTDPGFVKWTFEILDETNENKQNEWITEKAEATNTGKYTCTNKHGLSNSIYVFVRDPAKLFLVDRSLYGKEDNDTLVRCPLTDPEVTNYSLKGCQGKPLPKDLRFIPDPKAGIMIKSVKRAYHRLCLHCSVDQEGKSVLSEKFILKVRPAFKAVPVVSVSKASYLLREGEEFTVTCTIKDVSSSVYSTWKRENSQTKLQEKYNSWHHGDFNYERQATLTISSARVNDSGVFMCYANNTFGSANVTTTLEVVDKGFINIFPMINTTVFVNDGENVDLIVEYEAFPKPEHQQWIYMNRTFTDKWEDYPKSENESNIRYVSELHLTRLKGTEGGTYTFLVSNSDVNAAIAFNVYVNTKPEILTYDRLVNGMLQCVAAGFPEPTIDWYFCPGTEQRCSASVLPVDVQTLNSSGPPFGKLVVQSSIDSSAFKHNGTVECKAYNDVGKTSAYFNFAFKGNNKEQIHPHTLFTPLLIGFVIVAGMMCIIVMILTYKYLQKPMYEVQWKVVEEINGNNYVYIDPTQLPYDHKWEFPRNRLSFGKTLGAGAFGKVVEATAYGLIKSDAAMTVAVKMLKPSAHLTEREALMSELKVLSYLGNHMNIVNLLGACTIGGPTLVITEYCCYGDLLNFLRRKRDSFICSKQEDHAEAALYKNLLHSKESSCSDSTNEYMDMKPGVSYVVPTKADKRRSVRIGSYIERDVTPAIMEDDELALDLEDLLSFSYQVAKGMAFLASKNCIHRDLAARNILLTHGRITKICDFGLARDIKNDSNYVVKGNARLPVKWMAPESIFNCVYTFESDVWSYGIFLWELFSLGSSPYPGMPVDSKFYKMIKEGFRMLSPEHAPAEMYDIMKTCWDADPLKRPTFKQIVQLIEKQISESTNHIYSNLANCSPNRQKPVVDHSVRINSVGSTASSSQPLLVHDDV

SMILES	IC50 (PDGF-Ra) [nM]	IC50 (c-kit) [nM]	inhibition at 0.1 µM (PDGF-Ra; G292, figure in parentheses in >100( ), at 100 nM, read-out: PDGF (E) inhibition (%) at 100 nM) [%]	PDGF (E) inhibition (%) in >30( ) (PDGF-Ra; figure in parentheses in >30( ), concentration not defined, presumably 30 nM) [%]
COc1cc2nccc(Oc3ccc(NC(=O)OCCOc4cccc(F)c4)c(C)c3C)c2cc1OC [Example 208, 2-(3-Fluorophenoxy)ethyl N-{4-[(6,7-dimethoxy-4-quinolyl)oxy]-2,3-dimethylphenyl}carbamate]	18	53		
COc1cc2ncnc(Oc3ccc(NC(=O)OCCCOc4ccccc4Cl)c(C)c3C)c2cc1OC [Example 211, 3-(2-Chlorophenoxy)propyl N-{4-[(6,7-dimethoxy-4-quinazolinyl)oxy]-2,3-dimethylphenyl}-carbamate]	17	43		
COc1cc2ncnc(Oc3ccc(NC(=O)OCCCOc4cccc(Cl)c4)c(C)c3C)c2cc1OC [Example 212, 3-(3-Chlorophenoxy)propyl N-{4-[(6,7-dimethoxy-4-quinazolinyl)oxy]-2,3-dimethylphenyl}carbamate]	28	70		
COc1cc2ncnc(Oc3ccc(NC(=O)OCCCOc4ccc(Cl)cc4)c(C)c3C)c2cc1OC [Example 213, 3-(4-Chlorophenoxy)propyl N-{4-[(6,7-dimethoxy-4-quinazolinyl)oxy]-2,3-dimethylphenyl}-carbamate]	21	61		
COc1cccc(OC(=O)Nc2ccc(Oc3ccnc4cc(OC)c(OC)cc34)cc2)c1 [Example 214, 3-Methoxyphenyl N-{4-[(6,7-dimethoxy-4-quinolyl)oxy]phenyl}carbamate]	> 30	47		6
CCCOC(=O)Nc1ccc(Oc2ccnc3cc(OC)c(OC)cc23)c(C)c1C [Example 215, Propyl N-{4-[(6,7-Dimethoxy-4-quinolin)oxy]-2,3-dimethylphenyl}carbamate]	8	< 30		
COc1cc2nccc(Oc3ccc(NC(=O)OCc4ccccc4C)c(C)c3C)c2cc1OC [Example 232, 2-Methylbenzyl N-{4-[(6,7-dimethoxy-4-quinolyl)oxy]-2,3-dimethylphenyl}carbamate]	11	42		
COc1cc2nccc(Oc3ccc(NC(=O)OCc4cccc(C)c4)c(C)c3C)c2cc1OC [Example 233, 3-Methylbenzyl N-{4-[(6,7-dimethoxy-4-quinolyl)oxy]-2,3-dimethylphenyl}carbamate]	8	52		
COc1cc2nccc(Oc3ccc(NC(=O)OCc4ccccc4Cl)c(C)c3C)c2cc1OC [Example 235, 2-Chlorobenzyl N-{4-[(6,7-dimethoxy-4-quinolyl)oxy]-2,3-dimethylphenyl}carbamate]	< 3	57		
COc1ccccc1COC(=O)Nc1cc(C)c(Oc2ccnc3cc(OC)c(OC)cc23)cc1C [Example 239, 2-Methoxybenzyl N-{4-[(6,7-dimethoxy-4-quinolyl)oxy]-2,5-dimethylphenyl}carbamate]	9	183		
COc1cccc(COC(=O)Nc2cc(C)c(Oc3ccnc4cc(OC)c(OC)cc34)cc2C)c1 [Example 240, 3-Methoxybenzyl N-{4-[(6,7-dimethoxy-4-quinolyl)oxy]-2,5-dimethylphenyl}carbamate]	17	248		
COc1cc2nccc(Oc3cc(C)c(NC(=O)OCc4ccccc4Cl)cc3C)c2cc1OC [Example 241, 2-Chlorobenzyl N-{4-[(6,7-dimethoxy-4-quinolyl)oxy]-2,5-dimethylphenyl}carbamate]	12	232		
COc1cc2nccc(Oc3cc(C)c(NC(=O)OCc4cccc(Cl)c4)cc3C)c2cc1OC [Example 242, 3-Chlorobenzyl N-{4-[(6,7-dimethoxy-4-quinolyl)oxy]-2,5-dimethylphenyl}carbamate]	21	192		
CCCOC(=O)Nc1cc(C)c(Oc2ccnc3cc(OC)c(OC)cc23)cc1C [Example 244, Propyl N-{4-[(6,7-dimethoxy-4-quinolyl)oxy]-2,5-dimethylphenyl}carbamate]	27	69		
COc1cc2nccc(Oc3cc(C)c(NC(=O)OCc4ccccc4C)cc3C)c2cc1OC [Example 245, 2-Methylbenzyl N-{4-[(6,7-dimethoxy-4-quinolyl)oxy]-2,5-dimethylphenyl}carbamate]	16	408		
COc1cc2nccc(Oc3cc(C)c(NC(=O)OCc4ccc5ccccc5c4)cc3C)c2cc1OC [Example 246, 2-Naphthylmethyl N-{4-[(6,7-dimethoxy-4-quinolyl)oxy]-2,5-dimethylphenyl}carbamate]	58	243		
COc1cc2nccc(Oc3cc(C)c(NC(=O)OCc4ccccc4C)cc3C)c2cc1OC [Example 253, 2-Methylbenzyl N-{4-[(6,7-dimethoxy-4-quinolyl)oxy]-2,5-dimethylphenyl}carbamate]	17	514		
COc1cc2nccc(Oc3cc(C)c(NC(=O)OCc4cccc(C)c4)cc3C)c2cc1OC [Example 254, 3-Methylbenzyl N-{4-[(6,7-dimethoxy-4-quinolyl)oxy]-2,5-dimethylphenyl}carbamate]	> 100	396	27	

Now from value to compound, other results behind:

IC50 (PDGF-Ra) [nM]	IC50 (c-kit) [nM]	inhibition at 0.1 µM (PDGF-Ra; G292, figure in parentheses in >100( ), at 100 nM, read-out: PDGF (E) inhibition (%) at 100 nM) [%]	SMILES	PDGF (E) inhibition (%) in >30( ) (PDGF-Ra; figure in parentheses in >30( ), concentration not defined, presumably 30 nM) [%]
13	80		COc1cc2ncnc(Oc3ccc(NC(=O)OCCOc4ccccc4F)cc3)c2cc1OC [Example 206, 2-(2-Fluorophenoxy)ethyl N-{4-[(6,7-dimethoxy-4-quinazolinyl)oxy]phenyl}carbamate]	
31	55		COc1cc2nccc(Oc3ccc(NC(=O)OCCOc4cccc(F)c4)cc3)c2cc1OC [Example 207, 2-(3-Fluorophenoxy)ethyl N-{4-[(6,7-dimethoxy-4-quinolyl)oxy]phenyl}carbamate]	
16	95		COc1cc2ncnc(Oc3ccc(NC(=O)OCCOc4cccc(F)c4)cc3)c2cc1OC [Example 210, 2-(3-Fluorophenoxy)ethyl N-{4-[(6,7-dimethoxy-4-quinazolinyl)oxy]phenyl}carbamate]	
8	111		COc1cc2nccc(Oc3ccc(NC(=O)OC4CCCCC4)cc3)c2cc1OC [Example 230, Cyclohexyl N-{4-[(6,7-dimethoxy-4-quinolyl)oxy]phenyl}carbamate]	
1	86		COc1cc2nccc(Oc3ccc(NC(=O)OCc4ccccc4)cc3)c2cc1OC [Example 231, Benzyl N-{4-[(6,7-dimethoxy-4-quinolyl)oxy]phenyl}carbamate]	
10	46		COc1cc2nccc(Oc3ccc(NC(=O)OCc4ccc(C)cc4)c(C)c3C)c2cc1OC [Example 234, 4-Methylbenzyl N-{4-[(6,7-dimethoxy-4-quinolyl)oxy]-2,3-dimethylphenyl}carbamate]	
4	47		COc1cc2nccc(Oc3ccc(NC(=O)OCc4cccc(Cl)c4)c(C)c3C)c2cc1OC [Example 236, 3-Chlorobenzyl N-{4-[(6,7-dimethoxy-4-quinolyl)oxy]-2,3-dimethylphenyl}carbamate]	
6	42		COc1cc2nccc(Oc3ccc(NC(=O)OCc4ccc(Cl)cc4)c(C)c3C)c2cc1OC [Example 237, 4-Chlorobenzyl N-{4-[(6,7-dimethoxy-4-quinolyl)oxy]-2,3-dimethylphenyl}carbamate]	
10	36		COc1cccc(COC(=O)Nc2ccc(Oc3ccnc4cc(OC)c(OC)cc34)c(C)c2C)c1 [Example 238, 3-Methoxybenzyl N-{4-[(6,7-dimethoxy-4-quinolyl)oxy]-2,3-dimethylphenyl}carbamate]	
20	190		COc1cc2nccc(Oc3cc(C)c(NC(=O)OCc4ccc(Cl)cc4)cc3C)c2cc1OC [Example 243, 4-Chlorobenzyl N-{4-[(6,7-dimethoxy-4-quinolyl)oxy]-2,5-dimethylphenyl}carbamate]	
3	40		CCCOC(=O)Nc1ccc(Oc2ccnc3cc(OC)c(OC)cc23)cc1 [Example 247, Propyl N-{4-[(6,7-dimethoxy-4-quinolyl)oxy]phenyl}carbamate]	
11	147		COc1ccccc1COC(=O)Nc1ccc(Oc2ccnc3cc(OC)c(OC)cc23)cc1 [Example 248, 2-Methoxybenzyl N-{4-[(6,7-dimethoxy-4-quinolyl)oxy]phenyl}carbamate]	
4	57		COc1ccc(COC(=O)Nc2ccc(Oc3ccnc4cc(OC)c(OC)cc34)cc2)cc1 [Example 249, 4-Methoxybenzyl N-{4-[(6,7-dimethoxy-4-quinolyl)oxy]phenyl}carbamate]	
4	184		COc1cc2nccc(Oc3ccc(NC(=O)OCc4ccccc4C)cc3)c2cc1OC [Example 250, 2-Methylbenzyl N-{4-[(6,7-dimethoxy-4-quinolyl)oxy]phenyl}carbamate]	
6	185		COc1cc2nccc(Oc3ccc(NC(=O)OCc4cccc(C)c4)cc3)c2cc1OC [Example 251, 3-Methylbenzyl N-{4-[(6,7-dimethoxy-4-quinolyl)oxy]phenyl}carbamate]	
6	111		COc1cc2nccc(Oc3ccc(NC(=O)OCc4ccc(C)cc4)cc3)c2cc1OC [Example 252, 4-Methylbenzyl N-{4-[(6,7-dimethoxy-4-quinolyl)oxy]phenyl}carbamate]	
